Each structure is given as a SMILES string. Where only a bound is given, the exact number is not on record here.

Assay [1] concerns Mus musculus. Briefly: Compound was evaluated for the antitumor activity against i.p.-implanted M5076 sarcoma by measuring 60 day survivor in four mice a dose of 0.125 mM/kg/day given orally on days 1-5. The class given is functional.
For assay [2], the system named is Mus musculus. The assay is described as follows: Compound was evaluated for the antitumor activity against i.p.-implanted M5076 sarcoma by measuring 60 day survivor in four mice at a dose of 0.40 mM/kg/day given orally on days 1-5. The class given is functional.
Assay [3] relates to Mus musculus. Briefly: Compound was evaluated for the antitumor activity against i.p.-implanted M5076 sarcoma in mice for a dose of 0.125 mM/kg/day on days 1-5. The class given is functional.
Assay [4] relates to Mus musculus. Briefly: Compound was evaluated for the antitumor activity against i.p.-implanted M5076 sarcoma in mice for a dose of 0.40 mM/kg/day given intraperitoneally on days 1-5. The class given is functional.
Assay [5] deals with Mus musculus. Briefly: Compound was evaluated for the antitumor activity against i.p.-implanted L1210 leukemia in mice for a dose of 0.125 mM/kg/day given orally on days 1-5. The class given is functional.
The subject of assay [6] is Mus musculus. Briefly: Compound was evaluated for the antitumor activity against i.p.-implanted M5076 sarcoma by measuring 60 day survivor in four mice a dose of 0.40 mM/kg/day given orally on days 1-5. The class given is functional.
In assay [7] the test system is Mus musculus. The assay is described as follows: Compound was evaluated for the antitumor activity against i.p.-implanted M5076 sarcoma in four mice for a dose of 0.40 mM/kg/day given intraperitoneally on days 1-5; Toxic. The class given is functional, organism-based.

In the case of `C=C1[C@H](n2ccc(N)nc2=O)O[C@H](COP(=O)([O-])OC[C@@H](COC(=O)CCCCCCCCCCCCCCC)OC(=O)CCCCCCCCCCCCCCC)[C@H]1O.[Na+]`, the Survivors in the assay with Mus musculus [1] is given as 1; in the assay on Mus musculus [2], 4. Moreover, the figures for the increase in life span (ILS) in the assay with Mus musculus [3], with Mus musculus [4] and in the assay on Mus musculus [5] were 121%, over 179% and 64%, respectively.
Turning to `C=C1C(n2ccc(N)nc2=O)O[C@H](CO)[C@@H]1O` (some centres undefined), the Survivors in the assay on Mus musculus [1] and with Mus musculus [6] was 0 in each case. For the same molecule, the values for the increase in lifespan (ILS) with Mus musculus [3], with Mus musculus [4] and in the assay with Mus musculus [5] were 44%, 116% and 68%, respectively.
In the assay with Mus musculus [1], `C=C1[C@H](n2cc(F)c(N)nc2=O)O[C@H](COP(=O)([O-])OC[C@H](COC(=O)CCCCCCCCCCCCCCC)OC(=O)CCCCCCCCCCCCCCC)[C@H]1O.[Na+]` showed a Survivors of 3. In addition, the ILS in the assay with Mus musculus [3] was over 179%; in the assay on Mus musculus [7] it was “Toxic”; in the assay on Mus musculus [5], 96%.

These data come from ChEMBL document CHEMBL1129163, “Nucleosides and nucleotides. 155. synthesis, antitumor effects, and possible enzymatic activation mechanism of 5-phosphatidyl-2-deoxy-2-methylenecytidine (DMDC)” (1996).
